# Laboratory results taken from the supplement of paper PMC10307832.
# Key:
# Test in all cases: relative viability (nuclei count vs DMSO), 5 days (fraction); higher = more cells survive
# EBC-1 = tested on: EBC-1
# How it was run: (§1)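 Lung cancer cell lines were seeded in 1536-well plates and dosed by pin tool the next day, with either a single drug or a fixed anchor-drug dose combined with five library-drug doses (not always all listed) spaced in √10 steps. Five days later, one step fixed the cells and stained their nuclei (final 0.05% Triton X-100, 1% formaldehyde, 1 ug/ml Hoechst), and nuclei were counted on 4× images. Relative viability is the nuclei count in treated wells divided by the count in vehicle wells, and each value is the median of duplicate plates.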
# NCI-H1299 = tested on: NCI-H1299
# How it was run: as §1
# NCI-H1563 = tested on: NCI-H1563
# How it was run: as §1
# IA-LM = tested on: IA-LM
# How it was run: as §1
# A549 = tested on: A549
# How it was run: as §1
# NCI-H1703 = tested on: NCI-H1703
# How it was run: as §1
# Calu-6 = tested on: Calu-6
# How it was run: as §1
compound,measurement,setting,value
O=C(O)CCCCC(CCSCc1ccccc1)SCc1ccccc1 (configuration not stated) [CPI-613] + C[C@]1(O)C[C@@H](c2nc(-c3ccc4ccc(-c5ccccc5)nc4c3)c3c(N)nccn32)C1 [Linsitinib] (partner 1 µM),relative viability,EBC-1; first compound 5 µM,0.874
same,relative viability,EBC-1; first compound 15.81 µM,0.695
same,relative viability,EBC-1; first compound 50 µM,0.593
same,relative viability,EBC-1; first compound 158.11 µM,0.786
same,relative viability,EBC-1; first compound 500 µM,0.608
same,relative viability,NCI-H1299; first compound 5 µM,0.933
same,relative viability,NCI-H1299; first compound 15.81 µM,0.894
same,relative viability,NCI-H1299; first compound 50 µM,0.869
same,relative viability,NCI-H1299; first compound 158.11 µM,1
same,relative viability,NCI-H1299; first compound 500 µM,0.957
same,relative viability,NCI-H1563; first compound 5 µM,1.26
same,relative viability,NCI-H1563; first compound 15.81 µM,1.21
same,relative viability,NCI-H1563; first compound 50 µM,1.23
same,relative viability,NCI-H1563; first compound 158.11 µM,0.454
same,relative viability,NCI-H1563; first compound 500 µM,0.208
same,relative viability,IA-LM; first compound 5 µM,0.703
same,relative viability,IA-LM; first compound 15.81 µM,0.364
same,relative viability,IA-LM; first compound 50 µM,0.432
same,relative viability,IA-LM; first compound 158.11 µM,0.527
same,relative viability,IA-LM; first compound 500 µM,0.358
same,relative viability,A549; first compound 5 µM,0.529
same,relative viability,A549; first compound 15.81 µM,0.521
same,relative viability,A549; first compound 50 µM,0.588
same,relative viability,A549; first compound 158.11 µM,0.722
same,relative viability,A549; first compound 500 µM,0.597
same,relative viability,NCI-H1703; first compound 5 µM,1.21
same,relative viability,NCI-H1703; first compound 15.81 µM,0.809
same,relative viability,NCI-H1703; first compound 50 µM,0.568
same,relative viability,NCI-H1703; first compound 158.11 µM,0.17
same,relative viability,NCI-H1703; first compound 500 µM,0.439
same,relative viability,Calu-6; first compound 5 µM,1.02
same,relative viability,Calu-6; first compound 50 µM,0.726
same,relative viability,Calu-6; first compound 158.11 µM,0.905
same,relative viability,Calu-6; first compound 500 µM,0.658
Cc1cnc(-c2cnc(NCCNc3ccc(C#N)cn3)nc2-c2ccc(Cl)cc2Cl)[nH]1 + CC(C)C[C@H](NC(=O)[C@H](Cc1ccccc1)NC(=O)c1cnccn1)B(O)O [Bortezomib] (partner 0.002 µM),relative viability,EBC-1; first compound 0.08 µM,0.607
same,relative viability,EBC-1; first compound 0.8 µM,0.546
same,relative viability,EBC-1; first compound 2.53 µM,0.509
same,relative viability,NCI-H1299; first compound 0.08 µM,1.05
same,relative viability,NCI-H1299; first compound 0.253 µM,1
same,relative viability,NCI-H1299; first compound 0.8 µM,1.02
same,relative viability,NCI-H1299; first compound 2.53 µM,0.969
same,relative viability,NCI-H1563; first compound 0.08 µM,0.831
same,relative viability,NCI-H1563; first compound 0.253 µM,0.944
same,relative viability,NCI-H1563; first compound 0.8 µM,0.827
same,relative viability,NCI-H1563; first compound 2.53 µM,0.914
same,relative viability,IA-LM; first compound 0.08 µM,0.849
same,relative viability,IA-LM; first compound 0.253 µM,0.855
same,relative viability,IA-LM; first compound 0.8 µM,1.06
same,relative viability,IA-LM; first compound 2.53 µM,0.891
same,relative viability,NCI-H1703; first compound 0.08 µM,0.337
same,relative viability,NCI-H1703; first compound 0.253 µM,0.352
same,relative viability,NCI-H1703; first compound 0.8 µM,0.5
same,relative viability,NCI-H1703; first compound 2.53 µM,0.699
same,relative viability,Calu-6; first compound 0.08 µM,0.933
same,relative viability,Calu-6; first compound 0.253 µM,0.996
same,relative viability,Calu-6; first compound 0.8 µM,1.06
same,relative viability,Calu-6; first compound 2.53 µM,1.03
O=c1[nH]c2ccccc2n1C1CCN(CCCC(c2ccc(F)cc2)c2ccc(F)cc2)CC1 [Pimozide] + CC1(C)CCC(c2ccc(Cl)cc2)=C(CN2CCN(c3ccc(C(=O)NS(=O)(=O)c4ccc(N[C@H](CCN5CCOCC5)CSc5ccccc5)c(S(=O)(=O)C(F)(F)F)c4)cc3)CC2)C1 [Navitoclax] (partner 0.5 µM),relative viability,EBC-1; first compound 0.08 µM,0.356
same,relative viability,EBC-1; first compound 0.253 µM,0.493
same,relative viability,EBC-1; first compound 0.8 µM,0.367
same,relative viability,EBC-1; first compound 2.53 µM,0.309
same,relative viability,EBC-1; first compound 8 µM,0.211
same,relative viability,NCI-H1299; first compound 0.08 µM,1.04
same,relative viability,NCI-H1299; first compound 0.253 µM,0.969
same,relative viability,NCI-H1299; first compound 0.8 µM,0.99
same,relative viability,NCI-H1299; first compound 2.53 µM,1.03
same,relative viability,NCI-H1299; first compound 8 µM,1.03
same,relative viability,IA-LM; first compound 0.08 µM,0.686
same,relative viability,IA-LM; first compound 0.253 µM,0.723
same,relative viability,IA-LM; first compound 0.8 µM,0.923
same,relative viability,IA-LM; first compound 2.53 µM,0.746
same,relative viability,IA-LM; first compound 8 µM,0.728
same,relative viability,A549; first compound 0.08 µM,1.28
same,relative viability,A549; first compound 0.253 µM,1.31
same,relative viability,A549; first compound 0.8 µM,1.15
same,relative viability,A549; first compound 2.53 µM,1.14
same,relative viability,A549; first compound 8 µM,0.987
same,relative viability,NCI-H1703; first compound 0.08 µM,1.05
same,relative viability,NCI-H1703; first compound 0.253 µM,0.99
same,relative viability,NCI-H1703; first compound 0.8 µM,0.982
same,relative viability,NCI-H1703; first compound 2.53 µM,0.801
same,relative viability,NCI-H1703; first compound 8 µM,0.782
same,relative viability,Calu-6; first compound 0.08 µM,0.785
same,relative viability,Calu-6; first compound 0.253 µM,0.805
same,relative viability,Calu-6; first compound 0.8 µM,0.844
same,relative viability,Calu-6; first compound 2.53 µM,0.704
same,relative viability,Calu-6; first compound 8 µM,0.774
